The source of these data is patent US10863753B2, “Iron-fortified tea preparations and methods of making same” (The Governing Council of the University of Toronto, priority 2015, dated 2020).

Molecules are shown by their SMILES. Values joined by “and” are separate entries in the source; they are usually repeats but may differ in a detail not shown here. Equal entries are not always repeated. Where two headings read alike, the source gives them in different places.

The nature of data set [1]: Iron-polyphenol complex formation in brewed tea (spectrophotometry / colour). In kind it is physicochemical. As to the method: Iron polyphenol complex was measured using spectrophotometry. 2 L of tea were freshly prepared and brewed for 5 minutes. Tea leaves were removed and the liquid was distributed into 6 beakers (250 ml each). A stock solution of ferric EDTA was prepared and increasing volumes were added to each beaker. The maximum UV and Visible light absorbance wavelength for the tea was determined Absorbance at this maximum absorbance wavelength was measured after 5, 20 and 60 minutes. […]
Complex formation was determined using spectrophotometry. […] The maximum UV and visible light wavelength absorbance for the iron-tea polyphenol complex was determined. The maximum absorbance was 580 nm at tea pH and fortified teas were measured after 5, 20 and 60 minutes.

Data set [2] is classed as physicochemical. Conditions: for Precipitation in tea extract / Reduction of iron-polyphenol complex formation: tea extract 1 gGAE/L. As to the method:
The tea extract was prepared using a solution of 50% by volume N,N-dimethylformamide (DMF) and 50% by volume reverse osmosis purified (RO) water with black tea leaves. […] Tea extract was diluted to the concentration of tea (1 gGAE/L) or to 1/10th of that concentration (0.1 gGAE/L) for use in these experiments and pH was controlled using hydrochloric acid and sodium hydroxide.
Iron complex formation was measured using spectrophotometry and analyzed by normalizing against ferrous sulfate in gallic acid (GA) at the phenolic concentration of tea. Therefore, 100% represents the peak absorbance of ferrous sulfate in a 1 g/L gallic acid solution at pH 5 or pH 7.

Data set [3] is described as follows: Complexation of iron in gallic acid solution (spectrophotometry). The note with it: for Reduction of iron polyphenol complex formation: gallic acid; for Iron gallic acid complex: 0.3 mM iron.
Method: To approximate brewed tea, a concentration of 1 g/L and pH 5 were used. Binding of iron was also tested at pH 7 to approximate the pH of the small intestine. Hydrochloric acid and sodium hydroxide were used to adjust and maintain the pH. […] Since the iron-gallate complex is coloured, spectrophotometry was used to quantify the complex formation.
A further data set has as its system Caco-2 cells. Nature of the data set: Caco-2 cell transport, bioavailable fraction in basolateral chamber (Example 3). As to the method:
The digested liquid was diluted to half with buffer in order to ensure cells survival during the experiment, and the basolateral camera was filled with 2 ml of buffer. […] The liquid from the basolateral camera was collected and sent for iron analysis using AAS.
In general terms: Passage across Caco-2 layers is used to estimate intestinal permeability.

Data set [4] is described as follows: In vitro bioaccessibility, simulated pepsin and pancreatin/bile digestion (Example 3). It is filed as in vitro ADME. The note with it: in tea, no EDTA protection.
[5] abbreviates: iron source added to tea without EDTA protection.
Where [6] appears, read: iron source with EDTA protection, molar ratio 1:2.
Setting [7] is: target pH 5, tea extract 0.1 gGAE/L, 0.3 mM iron.
Where [8] appears, read: target pH 7, tea extract 0.1 gGAE/L, 0.3 mM iron.

`O=C([O-])CN(CCN(CC(=O)[O-])CC(=O)[O-])CC(=O)[O-].[Fe+3].[Na+]` [FeNaEDTA, ferric sodium EDTA]: the “Iron-polyphenol complex formation (colour)” value in data set [1] (setting [5]) is “complex was formed”; in data set [1] (setting [6]), “effective in avoiding complex formation”. Besides, the “Iron Complex (% FS in 1 g/L GA)” value in data set [2] (setting [7]) is listed as 3.0 ± 0.2 % FS in 1 g/L GA; in data set [2] (target pH 5, tea extract 0.1 gGAE/L, 0.3 mM iron, listed as Ferric sodium EDTA), 3 % FS in 1 g/L GA; in data set [2] (target pH 5, tea extract 1 gGAE/L, 0.3 mM iron), 4 ± 6 % FS in 1 g/L GA; in data set [2] (setting [8]) it was 3.0 ± 0.7 % FS in 1 g/L GA; in data set [2] (target pH 7, tea extract 0.1 gGAE/L, 0.3 mM iron, listed as Ferric sodium EDTA), 3 % FS in 1 g/L GA; in data set [2] (target pH 7, tea extract 1 gGAE/L, 0.3 mM iron), 70 ± 8 % FS in 1 g/L GA. Moreover, the “Precipitation in tea extract” value in data set [2] is listed as “not cause precipitation”. The “Reduction of iron-polyphenol complex formation” value is given as 96% in data set [2] (pH 5) and 30% in data set [2] (pH 7). For the same molecule, the “Reduction of iron polyphenol complex formation” value in data set [3] (pH 5) is 94%±3%; in data set [3] (pH 7), 93%±2%. Further, the “Iron gallic acid complex” value in data set [3] (target pH 5, 1 g/L gallic acid) was 6.2 ± 0.2%; in data set [3] (target pH 7, 1 g/L gallic acid), 7.0 ± 0.5%.

As to `O=C([O-])/C=C/C(=O)[O-].[Fe+2]` [ferrous fumarate], the results for the “Iron-polyphenol complex formation (colour)” value in data set [1] (setting [5]) and in data set [1] (setting [6]) were “iron-polyphenol complex was formed instantaneously” and “effective in avoiding complex formation”, respectively. Further, the “Iron Complex (% FS in 1 g/L GA)” value was found to be 65 ± 2 % FS in 1 g/L GA in data set [2] (setting [7]) and 66 ± 3 % FS in 1 g/L GA in data set [2] (setting [8]). Further, the “Precipitation in tea extract” value in data set [2] is reported as “precipitation occurs”. In addition, the “Increased bioavailability with an excess of EDTA versus no protection” value in the data set on Caco-2 cells (in fortified tea) worked out at 4 fold. In addition, in the data set with Caco-2 cells (in tea, added without EDTA protection), the Bioavailability of iron was 16% and 12%. For the same molecule, the “Iron gallic acid complex” value in data set [3] (target pH 5, 1 g/L gallic acid) amounted to 103 ± 3.0%; in data set [3] (target pH 7, 1 g/L gallic acid) it was 110 ± 2.0%.

For `O=S(=O)([O-])[O-].[Fe+2]` [ferrous sulphate], the “Iron-polyphenol complex formation (colour)” value is on record as “iron-polyphenol complex was formed instantaneously” in data set [1] (setting [5]) and “effective in avoiding complex formation” in data set [1] (setting [6]). Moreover, the results for the “Iron Complex (% FS in 1 g/L GA)” value in data set [2] (pH 5) and in data set [2] (pH 7) were 72 ± 2 % FS in 1 g/L GA and 85 ± 1 % FS in 1 g/L GA, respectively. Further, the “Iron gallic acid complex” value in data set [3] (target pH 5, 1 g/L gallic acid) is on record as 100 ± 3.0%; in data set [3] (target pH 7, 1 g/L gallic acid), 100 ± 2.0%. In addition, the Bioaccessibility of iron result in data set [4] is given as “lowest bioaccessibility”.
